Test results as given in US20230181599A1, “PROGESTOGEN FORMULATIONS AND USES THEREOF” (Shenzhen Evergreen Therapeutics Co., Ltd, priority 2020, published 2023).

Tests used:
[1] = Body weight of COPD rats; assay type: in vivo, Wistar rats; conditions: at 24 weeks; for weight increase: vs model group / BUD alone groups
Text: Inhibition of weight increase was lower in 17-HPC group than in the same dose BUD group.

[2] = system: smoke exposure-induced COPD rats; assay: Lung function (FEV0.2/FVC, small animal spirometer) in smoke exposure-induced COPD rats; assay type: in vivo, Wistar rats; conditions: CS-exposed rats, nebulized drug; compared with the model group
Experimental: (§1) Seventy-two Wistar rats were randomly divided into the blank control group, model group, 17-HPC (0.5 mg/ml, 0.25 mg/ml and 0.1 mg/ml) groups, BUD (0.5 mg/ml and 0.1 mg/ml) groups, and combination treatment (0.5 mg/ml BUD+0.25 mg/ml 17-HPC and 0.1 mg/ml BUD+0.25 mg/ml 17-HPC) groups. Drug concentration is the nebulized solution concentration. Lung function (forced vital capacity) of rats was measured using the small animal spirometer, and differential count in the BALF was determined under the microscope. Serum and BALF cytokine (IL-6, IL-17, TNF-α and IL-β) levels were measured by ELISA. Inflammatory cell infiltration area and MLI in rat lung tissues were determined by HE staining. Lung function of rats was measured using the small animal spirometer after 24 weeks of CS exposure.

[3] = target: ABCB1 efflux transporters (Homo sapiens, UniProt P08183); conditions: Bloise, E., et al. 2016; cited from earlier work
[4] = system: smoke exposure-induced COPD rats; assay: HE staining of lung tissue: inflammatory cell infiltration area and MLI in COPD rats; assay type: in vivo, Wistar rats
Experimental: (§2) Seventy-two Wistar rats were randomly divided into the blank control group, model group, 17-HPC (0.5 mg/ml, 0.25 mg/ml and 0.1 mg/ml) groups, BUD (0.5 mg/ml and 0.1 mg/ml) groups, and combination treatment (0.5 mg/ml BUD+0.25 mg/ml 17-HPC and 0.1 mg/ml BUD+0.25 mg/ml 17-HPC) groups. Drug concentration is the nebulized solution concentration. Lung function (forced vital capacity) of rats was measured using the small animal spirometer, and differential count in the BALF was determined under the microscope. Serum and BALF cytokine (IL-6, IL-17, TNF-α and IL-β) levels were measured by ELISA. Inflammatory cell infiltration area and MLI in rat lung tissues were determined by HE staining. […] The efficacy of high dose BUD was equivalent to that of high dose BUD+17-HPC.

[5] = system: Sprague-Dawley rats; assay: Seven-day inhalation toxicity study in rats (GLP); assay type: in vivo
Experimental: (§3) A 7-day inhalation toxicity study in rats was conducted under GLP conditions. In this study, aerosolized 17-HPC was administered to Sprague-Dawley rats (10/sex/group) at 8, 24, and 72 mg/kg/day for 7 consecutive days. A control group of rats was dosed with aerosolized vehicle. Animals were observed daily for clinical signs. Body weight and food consumption were recorded at pretest, and then on Days 1, 4, and 7. In order to evaluate reversibility of 17-HPC treatment, a satellite rat group (5/sex/group) was dosed by inhalation at 72 mg/kg/day for 7 days, and then was sacrificed on Day 14. Except for the rats in the satellite group, all animals were sacrificed on Day 8. Hematology and biochemistry examinations were performed at the end of the study. Organ weight, gross pathology, and histopathology evaluations were performed.
(§4) Histopathological examinations on the animal tissues from the 24 and 72 mg/kg/day groups have not been completed prior to submission of this pre-IND package.
(§5) Based on the preliminary results of this study, inhalational administration of 17-HPC at 8 mg/kg/day (48 mg/m^2/day) was determined as the no observed adverse effect level (NOAEL) The proposed clinical study is a single dose inhalation study starting at a dose level of 300 μg, which is approximately 6 μg/kg/day (222 μg/m^2/day) based on a human body weight of 50 kg/person. Therefore, the NOAEL generated in this inhalation study is approximately 216 times greater than the proposed initial clinical dose based on body surface areas.

[6] = Seven-day inhalation toxicity study in rats (GLP); assay type: in vivo, Sprague-Dawley rats; conditions: both sexes, Sprague-Dawley, rat, in vivo, inhaled or intranasal; inhalation, 7 consecutive days, rats; preliminary results; read-out: no observed adverse effect level (NOAEL)
Experimental: as §3, §4, §5

[7] = Saxton D J et al. 2004; cited from earlier work
[8] = system: smoke exposure-induced COPD rats; assay: Differential count in BALF (neutrophils) of COPD rats; assay type: in vivo, Wistar rats; conditions: CS-exposed rats, nebulized drug
Experimental: as §2

[9] = PK of oral formulations of PR2005 in female dogs, relative bioavailability vs intramuscular injection (MAKENA); assay type: in vivo
Text: This study determined the pharmacokinetic parameters of the test drug PR2005 (also referred to herein as 17-HPC) in different formulations after oral gavage or capsule administrations in dogs. This study further determined the relative bioavailability of the test drug PR2005 in each formulation, compared to intramuscular injection solution (MAKENA®).
PK parameters were estimated, including maximum plasma drug concentration (Cmax), time to reach Cmax (Tmax), time delay in absorption process (Tlag), area under the plasma concentration-time curve from time 0 to the last quantifiable data point (AUClast), area under the plasma concentration-time curve from time zero to infinity (AUCinf), plasma half-life (t1/2), and apparent plasma clearance (CL/F), apparent volume of distribution (Vz/F). All these parameters were computed using standard non-compartmental methods of analysis. Geometric mean and CV % are reported for most of PK parameters, and median with range is reported for Tmax and Tlag. Plasma PR2005 PK data was analyzed in Pheonix WinNonLin 8.1 (Certara USA, Inc.).
Log-transformed values of AUCinf were analyzed using a linear mixed-effects model. Least squares mean (LSM) for each treatment group and 90% confidence interval (CI) for the mean of the pairwise differences were estimated using this model. After back transformation from the log scale, estimates of geometric LSM and 90% CI for the ratio of means were calculated. Relative bioavailability (Fr %) was calculated as the ratio of dose normalized geometric least square mean (LSM) for test formulation and IM solution: […]
PR2005 250 mg intramuscular injection: 250 mg 17-HPC, 28.6% v/v of castor oil (CAS 8001-79-4), 46% v/v of benzyl benzoate (CAS 120-51-4), and 2% v/v of benzyl alcohol.
PR2005 250 mg oral (powder in capsules): 20% w/w of 17-HPC and 80% w/w mannitol. The particle size of 17-HPC is from about 2 to about 10 μm.
PR2005 250 mg Suspension #1: 30% w/w of 17-HPC and 70% castor oil (CAS 8001-79-4). The particle size of 17-HPC is from about 5 to about 30 μm.
PR2005 250 mg and 750 mg Solution #3: 30% w/w of 17-HPC, 63% w/w of benzyl benzoate (CAS 120-51-4), and 7% w/w of macrogolglycerol ricinoleate (CAS 61791-12-6).
The test items were administered on the first day of each trial. Each animal group was rotated through each trial with at least 4 days between trials and a […] 7-day washout between each test item administration.

[10] = system: TNF-α, IL-1β, IL-6 and IL-17; assay: Serum and BALF cytokine levels by ELISA in COPD rats; assay type: in vivo, Wistar rats; conditions: different doses, aside from the low dose (0.1 mg/ml) 17-HPC group
Experimental: as §1, with “To examine the in vitro and in vivo efficacy of 17-HPC inhalation in chronic obstructive pulmonary disease (COPD) rats, a rat model of COPD was established by exposing Wistar rats to CS for 1 hour every day for a total of 180 days. Seventy-two” for “Seventy-two”, “staining.” for “staining. Lung function of rats was measured using the small animal spirometer after 24 weeks of CS exposure.”

[11] = 250 mg intramuscular injection, geometric mean

Chain of ABCB1 efflux transporters (P08183 whole entry): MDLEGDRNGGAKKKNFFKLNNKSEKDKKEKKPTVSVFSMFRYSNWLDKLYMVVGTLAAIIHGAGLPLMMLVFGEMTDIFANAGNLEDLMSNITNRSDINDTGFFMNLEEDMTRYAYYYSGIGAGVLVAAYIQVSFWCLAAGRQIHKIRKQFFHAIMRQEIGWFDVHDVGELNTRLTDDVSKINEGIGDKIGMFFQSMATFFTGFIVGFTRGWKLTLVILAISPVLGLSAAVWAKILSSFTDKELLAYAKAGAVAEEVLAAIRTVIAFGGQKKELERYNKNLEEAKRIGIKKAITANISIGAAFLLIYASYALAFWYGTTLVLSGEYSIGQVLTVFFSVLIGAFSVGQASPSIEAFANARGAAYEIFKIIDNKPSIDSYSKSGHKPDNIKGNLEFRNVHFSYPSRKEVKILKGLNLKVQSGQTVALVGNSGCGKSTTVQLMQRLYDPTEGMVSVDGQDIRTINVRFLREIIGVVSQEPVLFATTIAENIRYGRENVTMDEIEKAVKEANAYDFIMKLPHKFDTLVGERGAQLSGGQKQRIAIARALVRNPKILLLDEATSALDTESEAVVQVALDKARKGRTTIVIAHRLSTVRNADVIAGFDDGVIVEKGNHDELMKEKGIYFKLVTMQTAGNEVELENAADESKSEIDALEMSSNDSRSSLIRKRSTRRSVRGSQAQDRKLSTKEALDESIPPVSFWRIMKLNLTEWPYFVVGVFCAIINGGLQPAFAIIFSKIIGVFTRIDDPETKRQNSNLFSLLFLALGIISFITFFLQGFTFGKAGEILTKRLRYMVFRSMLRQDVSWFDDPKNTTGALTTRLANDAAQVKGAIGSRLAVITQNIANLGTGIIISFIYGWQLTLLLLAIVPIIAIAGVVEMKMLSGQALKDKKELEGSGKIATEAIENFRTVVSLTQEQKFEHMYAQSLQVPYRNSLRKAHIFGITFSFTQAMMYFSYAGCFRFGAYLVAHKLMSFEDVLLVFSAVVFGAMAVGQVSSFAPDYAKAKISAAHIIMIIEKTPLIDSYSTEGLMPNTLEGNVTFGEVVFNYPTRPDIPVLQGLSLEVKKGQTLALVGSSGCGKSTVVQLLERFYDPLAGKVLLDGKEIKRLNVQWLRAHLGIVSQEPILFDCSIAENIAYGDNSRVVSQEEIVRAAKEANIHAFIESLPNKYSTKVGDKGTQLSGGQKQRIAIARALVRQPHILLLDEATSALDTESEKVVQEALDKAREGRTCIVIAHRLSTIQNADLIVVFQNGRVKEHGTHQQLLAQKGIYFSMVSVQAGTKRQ

Compound | weight increase [1] | FEV0.2/FVC % [2] | ABCB1 efflux transporter substrate [3] | inflammatory cell infiltration in lung tissue sections (HE staining) ([4]; 17-HPC groups vs model rats) | MLI ([4]; aside from the 0.1 mg/ml 17-HPC group, dose-dependent) | inflammatory cell infiltration in the lung tissues ([4]; high dose 17-HPC) | no observed adverse effect level (NOAEL), body surface area ([5]; inhalation, 7 days, rats) [mg/m^2/day] | NOAEL relative to the proposed initial clinical dose (300 μg) based on body surface areas ([5]; rat, in vivo) | pathological alterations after a 7-day recovery period ([5]; rat, in vivo, 72 mg/kg/day) | NOAEL at 7 days [6] [mg/kg/day] | activity when administered orally [7] | percentage of neutrophils in rat BALF [8] | Cl/F [9, 11] [L/h] | V [9, 11] [L] | half-life ([9]; female, dog, plasma, im, 250 mg intramuscular injection, geometric mean) [h] | Tmax ([9]; female, dog, plasma, im, 250 mg intramuscular injection, median) [h] | dose proportionality of Cmax and AUC, 250 to 750 mg ([9]; oral) | TNF-α, IL-1β, IL-6 and IL-17 levels in the BALF [10] | Inhibition of weight increase vs same dose BUD group [1]
CCCC1O[C@@H]2C[C@H]3[C@@H]4CCC5=CC(=O)C=C[C@]5(C)[C@H]4[C@@H](O)C[C@]3(C)[C@]2(C(=O)CO)O1 (some centres unmarked) [BUD, budesonide] | inhibited weight increase |  |  |  |  |  |  |  |  |  |  |  |  |  |  |  |  |  | 
CCCCCC(=O)O[C@]1(C(C)=O)CC[C@H]2[C@@H]3CCC4=CC(=O)CC[C@]4(C)[C@H]3CC[C@@]21C [Solution 17-HPC, 17-[(1-Oxohexyl)oxyl]-pregn-4-ene-3,20-dione] | no difference in weight increase | improved FEV0.2/FVC % in a dose-dependent manner | substrate of ABCB1 efflux transporters | attenuated | decreased | antagonize inflammatory cell infiltration | 48 | approximately 216 times | no remarkable pathological alterations | 8 | inactive | reduced the percentage of neutrophils | 35.68 | 2485 | 48.4 | 48 | generally greater than dose proportional | downregulate | lower
